For assay [1], the target named is Leukocyte tyrosine kinase receptor (Homo sapiens, UniProt P29376). The experiment in a line: Selectivity interaction (KinomeScan (DiscoverX)) EUB0000655a LTK. Particulars: at 10 µM.
The target in assay [2] is T1, Ephrin type-B receptor 6 (Homo sapiens) (UniProt O15197).
T1 sequence (whole entry): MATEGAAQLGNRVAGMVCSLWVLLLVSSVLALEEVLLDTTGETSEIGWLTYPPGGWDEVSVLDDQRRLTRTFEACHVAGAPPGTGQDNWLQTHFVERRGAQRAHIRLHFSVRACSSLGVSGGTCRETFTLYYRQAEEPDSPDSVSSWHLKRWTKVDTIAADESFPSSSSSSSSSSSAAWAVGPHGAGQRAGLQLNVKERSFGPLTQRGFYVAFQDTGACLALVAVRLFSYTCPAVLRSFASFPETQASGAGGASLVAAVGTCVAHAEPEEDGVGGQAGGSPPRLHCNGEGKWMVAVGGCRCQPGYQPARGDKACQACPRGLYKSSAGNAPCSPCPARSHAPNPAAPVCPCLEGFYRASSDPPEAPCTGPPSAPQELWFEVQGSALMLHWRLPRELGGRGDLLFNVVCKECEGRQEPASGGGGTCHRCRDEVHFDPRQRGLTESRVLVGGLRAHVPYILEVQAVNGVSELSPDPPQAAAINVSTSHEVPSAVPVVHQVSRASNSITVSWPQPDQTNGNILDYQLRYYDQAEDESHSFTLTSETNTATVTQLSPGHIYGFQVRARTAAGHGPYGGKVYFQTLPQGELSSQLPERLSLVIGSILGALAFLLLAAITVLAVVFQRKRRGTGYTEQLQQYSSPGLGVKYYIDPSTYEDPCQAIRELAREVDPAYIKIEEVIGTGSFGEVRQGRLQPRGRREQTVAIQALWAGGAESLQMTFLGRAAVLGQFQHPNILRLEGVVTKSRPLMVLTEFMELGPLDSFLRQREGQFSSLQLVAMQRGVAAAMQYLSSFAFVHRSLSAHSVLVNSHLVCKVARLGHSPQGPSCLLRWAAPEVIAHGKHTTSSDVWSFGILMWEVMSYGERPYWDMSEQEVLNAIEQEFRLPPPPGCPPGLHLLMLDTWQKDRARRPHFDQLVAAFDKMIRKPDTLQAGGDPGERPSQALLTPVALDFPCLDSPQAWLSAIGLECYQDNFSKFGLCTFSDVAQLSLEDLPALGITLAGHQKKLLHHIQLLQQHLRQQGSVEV
The assay can be described thus: Selectivity interaction (KinomeScan (DiscoverX)) EUB0000045b EPHB6.

Assay [3] concerns the target Tyrosine-protein kinase Fer (Homo sapiens) (UniProt P16591). The experiment in a line: Selectivity interaction (ActivX KiNativ screen (kinase selectivity in THP-1 cell lysates)) EUB0000639a FER. Type of assay: subcellular. As to conditions: lysate, at 0.2 µM.
For assay [4], the target named is T2, Serine/threonine-protein kinase 17B (Homo sapiens) (UniProt O94768).
T2 sequence (whole entry): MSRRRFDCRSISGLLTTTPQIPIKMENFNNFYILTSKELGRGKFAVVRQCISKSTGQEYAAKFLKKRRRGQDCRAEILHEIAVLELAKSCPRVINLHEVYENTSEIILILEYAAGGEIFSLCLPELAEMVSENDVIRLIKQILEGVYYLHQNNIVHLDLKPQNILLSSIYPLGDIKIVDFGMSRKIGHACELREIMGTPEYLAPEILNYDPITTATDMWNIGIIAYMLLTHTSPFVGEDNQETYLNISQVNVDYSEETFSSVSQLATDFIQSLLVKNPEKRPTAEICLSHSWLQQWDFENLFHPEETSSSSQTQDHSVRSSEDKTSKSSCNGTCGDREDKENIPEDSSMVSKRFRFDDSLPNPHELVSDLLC
The assay can be described thus: Selectivity interaction (Kinase panel (DSF assay)) EUB0001559a STK17B.

The target in assay [5] is T3, NUAK family SNF1-like kinase 2 (Homo sapiens) (UniProt Q9H093).
T3 sequence (whole entry): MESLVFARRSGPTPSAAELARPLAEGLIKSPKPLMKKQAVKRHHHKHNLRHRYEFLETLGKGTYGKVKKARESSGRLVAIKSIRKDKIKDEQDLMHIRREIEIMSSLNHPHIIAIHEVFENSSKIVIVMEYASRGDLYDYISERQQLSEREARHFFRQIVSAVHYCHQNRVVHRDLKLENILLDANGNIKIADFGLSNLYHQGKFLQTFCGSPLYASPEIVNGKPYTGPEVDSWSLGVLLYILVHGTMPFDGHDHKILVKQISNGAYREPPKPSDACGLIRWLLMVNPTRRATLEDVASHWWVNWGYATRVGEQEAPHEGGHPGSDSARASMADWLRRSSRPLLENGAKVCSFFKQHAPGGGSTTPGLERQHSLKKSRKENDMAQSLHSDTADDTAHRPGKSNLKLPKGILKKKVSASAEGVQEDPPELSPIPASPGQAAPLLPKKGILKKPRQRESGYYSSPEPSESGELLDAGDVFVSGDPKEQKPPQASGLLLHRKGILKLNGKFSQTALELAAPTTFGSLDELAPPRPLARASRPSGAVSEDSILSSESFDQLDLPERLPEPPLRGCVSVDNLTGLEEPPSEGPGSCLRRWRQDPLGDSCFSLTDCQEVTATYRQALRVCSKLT
The assay can be described thus: Selectivity interaction (ActivX KiNativ screen (ex vivo kinase selectivity in human PBMCs)) EUB0001619a NUAK2. Type of assay: cell-based. Particulars: PBMC, at 1 µM.

Assay [6] deals with Phosphatidylinositol 4,5-bisphosphate 3-kinase catalytic subunit gamma isoform (Homo sapiens) (UniProt P48736). The experiment in a line: Selectivity interaction (KinomeScan (DiscoverX)) EUB0001619a PIK3CG. Particulars: at 1 µM.
Chain of Phosphatidylinositol 4,5-bisphosphate 3-kinase catalytic subunit gamma isoform (Homo sapiens) (P48736 whole entry, looked up, canonical isoform): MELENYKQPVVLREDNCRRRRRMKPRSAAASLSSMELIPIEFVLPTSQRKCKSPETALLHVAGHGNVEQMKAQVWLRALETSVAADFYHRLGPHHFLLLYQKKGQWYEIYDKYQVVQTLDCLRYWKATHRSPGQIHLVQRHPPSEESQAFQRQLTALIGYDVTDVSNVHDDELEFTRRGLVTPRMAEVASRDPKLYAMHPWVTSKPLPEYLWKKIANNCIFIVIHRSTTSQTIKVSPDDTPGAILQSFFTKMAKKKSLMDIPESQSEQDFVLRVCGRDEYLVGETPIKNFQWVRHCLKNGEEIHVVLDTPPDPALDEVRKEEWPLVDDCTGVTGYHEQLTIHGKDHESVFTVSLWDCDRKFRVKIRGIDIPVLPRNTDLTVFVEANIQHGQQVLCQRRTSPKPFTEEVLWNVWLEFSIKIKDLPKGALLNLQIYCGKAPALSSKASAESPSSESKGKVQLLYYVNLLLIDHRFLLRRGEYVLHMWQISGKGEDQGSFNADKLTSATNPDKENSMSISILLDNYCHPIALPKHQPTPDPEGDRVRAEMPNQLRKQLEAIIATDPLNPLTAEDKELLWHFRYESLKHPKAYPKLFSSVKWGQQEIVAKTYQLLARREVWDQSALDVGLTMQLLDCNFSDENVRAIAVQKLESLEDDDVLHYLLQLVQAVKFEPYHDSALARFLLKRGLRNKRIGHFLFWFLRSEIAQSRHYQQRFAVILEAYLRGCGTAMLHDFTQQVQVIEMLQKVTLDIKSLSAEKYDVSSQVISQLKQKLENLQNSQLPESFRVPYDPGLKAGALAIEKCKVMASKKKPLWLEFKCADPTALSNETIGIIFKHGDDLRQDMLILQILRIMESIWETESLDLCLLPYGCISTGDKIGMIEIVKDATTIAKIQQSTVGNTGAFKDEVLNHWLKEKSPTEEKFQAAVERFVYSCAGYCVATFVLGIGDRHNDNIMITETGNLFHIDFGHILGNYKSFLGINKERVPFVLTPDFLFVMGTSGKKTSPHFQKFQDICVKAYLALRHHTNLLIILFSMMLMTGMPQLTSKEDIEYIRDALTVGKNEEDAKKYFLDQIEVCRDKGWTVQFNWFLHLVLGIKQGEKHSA
Assay [7] addresses Glycogen synthase kinase-3 beta (Homo sapiens, UniProt P49841). The experiment in a line: Selectivity interaction (KinomeScan (DiscoverX)) EUB0000618a GSK3B. As to conditions: at 10 µM.

Chain of Glycogen synthase kinase-3 beta (P49841 whole entry, looked up): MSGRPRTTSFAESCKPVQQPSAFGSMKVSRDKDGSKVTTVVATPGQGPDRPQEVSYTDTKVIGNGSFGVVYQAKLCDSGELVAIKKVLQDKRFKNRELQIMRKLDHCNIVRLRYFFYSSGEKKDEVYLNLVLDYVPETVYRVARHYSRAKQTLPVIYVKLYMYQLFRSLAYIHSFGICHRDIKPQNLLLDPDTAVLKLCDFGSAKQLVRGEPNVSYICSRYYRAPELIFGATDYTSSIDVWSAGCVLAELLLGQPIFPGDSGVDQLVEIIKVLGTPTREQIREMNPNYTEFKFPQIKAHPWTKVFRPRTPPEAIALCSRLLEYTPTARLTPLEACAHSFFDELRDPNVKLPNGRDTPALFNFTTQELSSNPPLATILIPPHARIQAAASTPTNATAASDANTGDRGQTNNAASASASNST
Chain of Tyrosine-protein kinase Fer (Homo sapiens) (P16591 whole entry, looked up): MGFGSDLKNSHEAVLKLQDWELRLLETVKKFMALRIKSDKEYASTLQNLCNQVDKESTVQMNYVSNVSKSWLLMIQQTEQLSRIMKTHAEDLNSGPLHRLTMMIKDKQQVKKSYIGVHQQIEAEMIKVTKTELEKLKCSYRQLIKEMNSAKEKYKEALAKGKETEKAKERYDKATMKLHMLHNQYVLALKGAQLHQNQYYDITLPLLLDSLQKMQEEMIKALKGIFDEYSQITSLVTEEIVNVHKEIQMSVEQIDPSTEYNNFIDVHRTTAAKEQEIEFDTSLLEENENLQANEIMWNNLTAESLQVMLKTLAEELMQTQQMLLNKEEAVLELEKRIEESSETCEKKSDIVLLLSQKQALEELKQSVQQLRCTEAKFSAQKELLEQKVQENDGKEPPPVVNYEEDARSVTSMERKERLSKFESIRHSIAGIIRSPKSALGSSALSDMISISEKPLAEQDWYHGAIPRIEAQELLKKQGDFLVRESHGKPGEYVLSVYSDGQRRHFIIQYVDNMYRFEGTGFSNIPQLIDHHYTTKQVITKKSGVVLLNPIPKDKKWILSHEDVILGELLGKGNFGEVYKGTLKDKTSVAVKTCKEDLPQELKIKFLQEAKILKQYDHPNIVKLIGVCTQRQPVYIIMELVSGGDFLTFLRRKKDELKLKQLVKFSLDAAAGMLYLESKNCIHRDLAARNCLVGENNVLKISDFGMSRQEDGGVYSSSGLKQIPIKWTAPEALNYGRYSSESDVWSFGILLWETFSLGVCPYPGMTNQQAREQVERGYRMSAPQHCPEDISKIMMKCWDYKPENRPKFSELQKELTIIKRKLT
Chain of Leukocyte tyrosine kinase receptor (P29376 whole entry): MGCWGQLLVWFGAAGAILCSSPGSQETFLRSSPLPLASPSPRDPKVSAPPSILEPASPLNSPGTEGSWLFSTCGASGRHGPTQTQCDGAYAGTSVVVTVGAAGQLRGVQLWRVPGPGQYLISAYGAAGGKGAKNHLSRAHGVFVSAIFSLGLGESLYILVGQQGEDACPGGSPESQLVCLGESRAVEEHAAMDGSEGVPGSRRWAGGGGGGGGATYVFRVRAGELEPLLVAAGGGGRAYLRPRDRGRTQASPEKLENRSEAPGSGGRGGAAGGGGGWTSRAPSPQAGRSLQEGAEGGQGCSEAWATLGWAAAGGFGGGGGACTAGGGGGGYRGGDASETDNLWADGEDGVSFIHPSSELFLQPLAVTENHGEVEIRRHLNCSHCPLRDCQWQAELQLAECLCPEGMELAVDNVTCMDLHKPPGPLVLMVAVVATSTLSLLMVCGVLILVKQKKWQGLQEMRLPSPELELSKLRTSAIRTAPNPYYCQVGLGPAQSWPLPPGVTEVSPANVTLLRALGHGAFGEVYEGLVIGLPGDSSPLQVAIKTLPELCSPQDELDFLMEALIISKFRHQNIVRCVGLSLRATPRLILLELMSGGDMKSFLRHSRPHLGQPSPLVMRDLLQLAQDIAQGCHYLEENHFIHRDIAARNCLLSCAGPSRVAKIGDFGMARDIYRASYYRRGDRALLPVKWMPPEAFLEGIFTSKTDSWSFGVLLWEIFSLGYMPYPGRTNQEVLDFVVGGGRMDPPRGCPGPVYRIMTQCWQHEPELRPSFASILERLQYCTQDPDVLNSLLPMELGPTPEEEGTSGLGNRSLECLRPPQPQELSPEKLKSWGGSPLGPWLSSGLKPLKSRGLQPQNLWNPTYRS

`CN(C)CCOc1ccc(-c2nc(-c3ccncc3)c(-c3ccc4c(c3)CC/C4=N\O)[nH]2)cc1` had a % of control in assay [1] of 67%. For the compound `C=CC(=O)Nc1cc(-n2c(=O)ccc3cnc4ccc(-c5ccc(NS(C)(=O)=O)cc5)cc4c32)ccc1C`, the % of control was determined as 90% in assay [2] (at 1 µM) and 85% in assay [2] (at 10 µM). Take `CC[C@@H]1[C@H](F)C(=O)N[C@@H]1COc1nccc2cc(C(N)=O)c(OC)cc12` [ZIMLOVISERTIB]: the % of inhibition in assay [3] is -7.1%. `CN(C(=O)c1cnn2cccnc12)c1cc2c(cc1N1CCOCC1)C(=O)N(C[C@@H](F)C(C)(C)O)C2` returned a dTM in assay [4] of 1 K. As to `N#Cc1cccc(-c2c[nH]c3ncnc(N4CCOCC4)c23)c1`, in assay [5], the % of inhibition was found to be 18%. For the same compound, the % of control in assay [6] was 79%.

In assay [7], `O[C@H]1CC[C@H](Nc2ncc3nc(Nc4c(F)cc(F)cc4F)n([C@H]4CCOC4)c3n2)CC1` yielded a % of control of 95%.

The record behind these values is ChEMBL document CHEMBL5465560, “Selectivity Literature for EUbOPEN Chemogenomic Library” (2024).
